Non-standard residues stand in square brackets, D forms with d. No end group written: not given here. Nle = CCCC[C@H](N)C(=O)O

For the test, the system named is ApoB. As to the kind of experiment: Knockdown of endogenous serum ApoB in mice after co-injection of masked melittin delivery peptide and ApoB siRNA-cholesterol conjugate. In kind it is in vivo. The procedure:
RNAi polynucleotide conjugates and masked melittin peptides were synthesized as described above. Six to eight week old mice (strain C57BL/6 or ICR, ˜18-20 g each) were obtained from Harlan Sprague Dawley (Indianapolis Ind.). Mice were housed at least 2 days prior to injection. Feeding was performed ad libitum with Harlan Teklad Rodent Diet (Harlan, Madison Wis.). Mice were injected with 0.2 mL solution of delivery peptide and 0.2 mL siRNA conjugates into the tail vein. For simultaneous injection of delivery peptide and siRNA, the siRNA-conjugate was added to modified peptide prior to injection and the entire amount was injected. The composition was soluble and nonaggregating in physiological conditions. Solutions were injected by infusion into the tail vein.
Mice were fasted for 4 h (16 h for rats) before serum collection by submandibular bleeding. For rats blood was collected from the jugular vein. Serum ApoB protein levels were determined by standard sandwich ELISA methods. Briefly, a polyclonal goat anti-mouse ApoB antibody and a rabbit anti-mouse ApoB antibody (Biodesign International) were used as capture and detection antibodies respectively. An HRP-conjugated goat anti-rabbit IgG antibody (Sigma) was applied afterwards to bind the ApoB/antibody complex. Absorbance of tetramethyl-benzidine (TMB, Sigma) colorimetric development was then measured by a Tecan Safire2 (Austria, Europe) microplate reader at 450 nm.
Melittin was reversibly modified with CDM-NAG as described above. The indicated amount of melittin was then co-injected with the 200 μg ApoB siRNA-cholesterol conjugate. Effect on ApoB levels were determined as described above.
Melittin was reversibly modified with CDM-NAG as described above. The indicated amount of melittin was then co-injected with 50 μg ApoB siRNA-cholesterol conjugate. Effect on ApoB levels were determined as described above.
Melittin was reversibly modified with CDM-NAG (5×) as described above. The indicated amount of melittin was then co-injected with the indicated amount of ApoB siRNA-cholesterol conjugate. Effect on ApoB levels were determined as described above.
Melittin was reversibly modified with the indicated amount of CDM-NAG as described above. 50 μg melittin was then co-injected with the 100 μg ApoB siRNA-cholesterol conjugate. Effect on ApoB levels were determined as described above.
Melittin peptides having the indicated sequence were reversibly modified with CDM-NAG (5×) as described above. The indicated amount of melittin was then co-injected with the indicated amount of ApoB siRNA-cholesterol conjugate. Effect on ApoB levels were determined as described above.
Melittin peptides containing the indicated PEG amino terminal modifications were synthesized as described above. The PEG amino terminal modified melittin peptides were then reversibly modified with 5×CDM-NAG as described above. The indicated amount of Melittin was then co-injected with the 100-200 μg ApoB siRNA-cholesterol conjugate. Effect on ApoB levels were determined as described above. Addition of PEG less than 5 kDa in size decreased toxicity of the melittin peptides.

[1] abbreviates: CDM-NAG (5×), 100 μg peptide per mouse, 100 μg siRNA per mouse.
The mark [2] stands for this setting: CDM-NAG (5×), 80 μg peptide per mouse, 100 μg siRNA per mouse.
The mark [3] stands for this setting: CDM-NAG (5×), 400 μg peptide per mouse, 100 μg siRNA per mouse.
[4] abbreviates: CDM-NAG (5×), 50 μg peptide per mouse, 100 μg siRNA per mouse.

Substance “G1V (Seq ID 9): melittin peptide derivative (VIGAILKVLATGLPTLISWIKNKRKQ; melittin-like peptide derive from Apis florea)” yielded a percent knockdown under setting [1] of 91%.

Consider “C-dMel G1Nle (Seq ID 52): melittin peptide derivative (C[Nle]IGAILKVLATGLPTLISWIKNKRKQ; also: D-amino acids (dMel), positions not given here)”, for which the percent knockdown under setting [1] was 84%.

Take “QQRKRKIWSILAALGTTLVKLVAGIC-NH2 (also: retro-inverso, methoxy, position not given here) [Seq ID 95 Retroinverso Methoxy]”: the percent knockdown (CDM-NAG (5×), amount in column 'siRNA' 30 mg/kg) is reported as 39%.

Consider “G1W (Seq ID 10): melittin peptide derivative (WIGAILKVLATGLPTLISWIKNKRKQ; melittin-like peptide derive from Apis florea)”, for which the percent knockdown (CDM-NAG (5×), 200 μg peptide per mouse, 200 μg siRNA per mouse) is recorded as 96%.

On to “Dimethyl G-Mel G1L (Seq ID 53): melittin peptide derivative (dimethyl-GLIGAILKVLATGLPTLISWIKNKRKQ)”, for which the percent knockdown under setting [1] was determined as 91%.

Under setting [1], “G1L, I2V, I5V, I17V, I20V (Seq ID 45): melittin peptide derivative (LVGAVLKVLATGLPTLVSWVKNKRKQ; melittin-like peptide derive from Apis florea)” registered a percent knockdown of 24%.

Under setting [2], “G12W (Seq ID 14): melittin peptide derivative (GIGAILKVLATWLPTLISWIKNKRKQ; melittin-like peptide derive from Apis florea)” yielded a percent knockdown of 51%.

The substance “dimethyl-dMel I2L, I5L, T11C, I17L, I20L dMel (Seq ID 46): melittin peptide derivative (dimethyl-GLGALLKVLACGLPTLLSWLKNKRKQ; not fully specified (some residues); also: D-amino acids, positions not given here)” gave a percent knockdown under setting [1] of 87%.

Consider “G1L, T11C, S18C dMel (Seq ID 38): melittin peptide derivative ([dL][dI]G[dA][dI][dL][dK][dV][dL][dA][dC]G[dL][dP][dT][dL][dI][dC][dW][dI][dK][dN][dK][dR][dK][dQ]; cysteine pairing not given here)”, for which the percent knockdown under setting [1] stood at 88%.

For the substance “G1L, L5V, A10T, T15A, N22G, K23E dMel (1-23) (Seq ID 73): melittin peptide derivative”, the percent knockdown under setting [3] amounted to 92%.

Substance “Mel-NH2 (Seq ID 116): melittin peptide derivative (GIGAILKVLATGLPTLISWIKNKRKQ-NH2)” showed a percent knockdown under setting [4] of 86%.

As for “G1Nle (Seq ID 8): melittin peptide derivative ([Nle]IGAILKVLATGLPTLISWIKNKRKQ)”, under setting [1], the percent knockdown is 96%.

“G12L (Seq ID 13): melittin peptide derivative (GIGAILKVLATLLPTLISWIKNKRKQ; melittin-like peptide derive from Apis florea)”: the percent knockdown under setting [2] is 58%.

“G1L, K7H (Seq ID 20): melittin peptide derivative (LIGAILHVLATGLPTLISWIKNKRKQ; melittin-like peptide derive from Apis florea)”: the percent knockdown under setting [1] is recorded as 97%.

Take “G1L, I2L, 15L, I17L, I20L (Seq ID 43): melittin peptide derivative (LLGALLKVLATGLPTLLSWLKNKRKQ; melittin-like peptide derive from Apis florea)”: the percent knockdown under setting [3] amounted to 96%.

Consider “G1Y, K23A (Seq ID 29): melittin peptide derivative (YIGAILKVLATGLPTLISWIKNARKQ; melittin-like peptide derive from Apis florea)”, for which the percent knockdown under setting [1] was found to be 42%.

With “CKLK-Mel G1L (Seq ID 57): melittin peptide derivative; in Table 9 also with amino terminal NAG-(PEG)2/4/8 or PEG (5k) (CKLKLIGAILKVLATGLPTLISWIKNKRKQ; N-terminal CKLK extension; melittin-like peptide derive from Apis florea)”, the percent knockdown runs as follows: (5× CDM-NAG, amino terminal NAG-(PEG)2, 25 μg peptide, 100 μg siRNA) 15%; (5× CDM-NAG, amino terminal NAG-(PEG)2, 50 μg peptide, 100 μg siRNA) 83%; (5× CDM-NAG, amino terminal NAG-(PEG)4, 25 μg peptide, 100 μg siRNA) 58%; (5× CDM-NAG, amino terminal NAG-(PEG)4, 50 μg peptide, 100 μg siRNA) 81%; (5× CDM-NAG, amino terminal NAG-(PEG)4, 100 μg peptide, 100 μg siRNA) 94%; (5× CDM-NAG, amino terminal NAG-(PEG)8, 25 μg peptide, 100 μg siRNA) 58%. The percent knockdown is, setting by setting: (5× CDM-NAG, amino terminal NAG-(PEG)8, 50 μg peptide, 100 μg siRNA) 89%; (5× CDM-NAG, amino terminal NAG-(PEG)8, 100 μg peptide, 100 μg siRNA) 96%; (5× CDM-NAG, amino terminal PEG (5k), 100 μg peptide, 100 μg siRNA) 90%; (5× CDM-NAG, no PEG modification, 150 μg peptide, 100 μg siRNA) 91%; (5× CDM-NAG, no PEG modification, 400 μg peptide, 100 μg siRNA) 97%; (CDM-NAG (5×), 150 μg peptide per mouse, 100 μg siRNA per mouse) 91%.

Regarding “G1L, K21A (Seq ID 28): melittin peptide derivative (YIGAILKVLATGLPTLISWIANKRKQ; melittin-like peptide derive from Apis florea)”, the percent knockdown under setting [1] was 95%.

On to “G1C (Seq ID 3): melittin peptide derivative (CIGAILKVLATGLPTLISWIKNKRKQ; melittin-like peptide derive from Apis florea)”, for which the percent knockdown under setting [1] is 37%.

Take “QQRKRKIWSILAPLGTTLVKLVAGIC-NH2 [Seq ID 92]”: the percent knockdown came to 85% (CDM-NAG (5×), amount in column 'siRNA' 400 μg) and 94% (CDM-NAG (5×), siRNA 20 mg/kg).

Take “CKLK-dMel G1Nle (Seq ID 112): melittin peptide derivative (CKLK[Nle]IGAILKVLATGLPTLISWIKNKRKQ; also: D-amino acids (dMel), positions not given here)”: the percent knockdown (CDM-NAG (5×), 200 μg peptide per mouse, 100 μg siRNA per mouse) is on record as 84%.

Substance “G1L Mel-KLKC (Seq ID 65): melittin peptide derivative (LIGAILKVLATGLPTLISWIKNKRKQKLKC; C-terminal KLKC extension; melittin-like peptide derive from Apis florea)” registered a percent knockdown under setting [1] of 97%.

Substance “G1L dMel-C (Seq ID 114): melittin peptide derivative ([dL][dI]G[dA][dI][dL][dK][dV][dL][dA][dT]G[dL][dP][dT][dL][dI][dS][dW][dI][dK][dN][dK][dR][dK][dQ]C)” registered a percent knockdown under setting [4] of 93%.

The substance “G1L, Mel-KKKKK (Seq ID 67): melittin peptide derivative (LIGAILKVLATGLPTLISWIKNKRKQKKKKK; C-terminal KKKKK extension; melittin-like peptide derive from Apis florea)” came in with a percent knockdown under setting [3] of 96%.

“G1L, G12L (Seq ID 22): melittin peptide derivative (LIGAILKVLATLLPTLISWIKNKRKQ; melittin-like peptide derive from Apis florea)” gave a percent knockdown under setting [3] of 93%.

For the setting “CDM-NAG (5×), 400 μg peptide per mouse, 50 μg siRNA per mouse”, “G1Nle Mel-C (Seq ID 64): melittin peptide derivative ([Nle]IGAILKVLATGLPTLISWIKNKRKQC)” had a percent knockdown of 89%.

The values are drawn from patent US9526796B2, “Peptide-based in vivo siRNA delivery system” (priority 2010, dated 2016).
